{"source": "patent US20260159474A1", "about": "“Aminoindane Compounds and Compositions and Methods of Their Therapeutic Use” (Solvonis Therapeutics Ireland Holdings Limited, priority 2021, published 2026)", "key": {"[1]": {"assay": "Rat body temperature after IP administration", "type": "in vivo, Sprague Dawley rats", "conditions": "200 minutes after injection", "procedure": "Methods and Procedure: This study was conducted in compliance with previously described procedures to assure data integrity, adherence to GLP regulations, and standard preclinical study and surgery procedures. The in vivo microdialysis technique was applied to measure the over-time variations of DA, 5-HT, and NE extracellular (EC) concentrations in conscious, freely-moving Sprague Dawley rats. At the end of each experimental session (200 minutes after injection), body temperature (° C.) of Sprague Dawley rats was monitored using a digital thermometer with a rectal probe."}, "[2]": {"tested_on": "DAT/SERT", "conditions": "Simmler et al., Br J Pharmacol. 2013; cited from earlier work"}, "[3]": {"conditions": "MDMA at doses of 100-125 mg, literature; cited from earlier work"}, "[4]": {"biological_target": "T1, P-glycoprotein (P-gp, MDR1) (Homo sapiens, UniProt P08183)", "T1 construct": "expressed in transfected cells; host or cells: MDCKII-MDR1 (Madin-Darby Canine Kidney clone II)", "T1 sequence (P08183 whole entry)": "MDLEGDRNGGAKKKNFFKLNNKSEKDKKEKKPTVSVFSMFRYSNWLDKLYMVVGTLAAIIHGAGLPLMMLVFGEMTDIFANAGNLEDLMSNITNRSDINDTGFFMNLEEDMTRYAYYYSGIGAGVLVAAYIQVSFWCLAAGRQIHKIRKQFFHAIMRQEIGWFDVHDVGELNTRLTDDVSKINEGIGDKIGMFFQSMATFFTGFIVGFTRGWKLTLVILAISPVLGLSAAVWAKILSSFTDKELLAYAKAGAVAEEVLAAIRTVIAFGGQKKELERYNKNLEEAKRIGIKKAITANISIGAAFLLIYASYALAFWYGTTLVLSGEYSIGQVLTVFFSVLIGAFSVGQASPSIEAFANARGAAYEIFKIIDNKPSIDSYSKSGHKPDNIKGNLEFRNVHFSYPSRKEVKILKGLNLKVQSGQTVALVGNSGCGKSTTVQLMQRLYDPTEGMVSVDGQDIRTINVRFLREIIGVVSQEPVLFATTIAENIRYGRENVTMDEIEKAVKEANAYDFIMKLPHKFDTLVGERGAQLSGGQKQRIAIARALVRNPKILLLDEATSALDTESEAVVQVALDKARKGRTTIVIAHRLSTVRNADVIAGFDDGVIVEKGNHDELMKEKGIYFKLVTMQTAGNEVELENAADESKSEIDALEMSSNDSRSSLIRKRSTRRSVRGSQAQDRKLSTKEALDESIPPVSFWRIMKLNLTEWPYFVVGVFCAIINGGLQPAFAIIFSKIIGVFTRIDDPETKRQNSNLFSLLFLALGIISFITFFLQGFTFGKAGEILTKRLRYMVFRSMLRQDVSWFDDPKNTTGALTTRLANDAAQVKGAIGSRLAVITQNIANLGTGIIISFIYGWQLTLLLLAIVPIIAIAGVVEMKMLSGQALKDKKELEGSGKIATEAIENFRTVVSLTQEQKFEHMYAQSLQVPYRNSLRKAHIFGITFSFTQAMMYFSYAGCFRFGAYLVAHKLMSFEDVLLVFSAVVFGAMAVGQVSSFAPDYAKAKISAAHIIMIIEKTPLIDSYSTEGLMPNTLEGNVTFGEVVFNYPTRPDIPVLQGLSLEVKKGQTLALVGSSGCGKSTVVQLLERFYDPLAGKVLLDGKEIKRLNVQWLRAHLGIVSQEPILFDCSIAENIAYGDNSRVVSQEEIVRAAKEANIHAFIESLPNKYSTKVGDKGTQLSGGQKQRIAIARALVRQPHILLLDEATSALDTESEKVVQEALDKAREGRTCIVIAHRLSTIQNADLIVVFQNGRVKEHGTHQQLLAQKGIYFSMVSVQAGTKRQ", "assay": "Bidirectional permeability and P-gp substrate assay in MDCKII-MDR1 cells", "type": "in vitro ADME", "conditions": "human, MDCK-MDR1, pH 7.4; efflux ratio, MDCKII-MDR1 cells; read-out: MDCKII-MDR1 B-A ratio", "procedure": "Methods: A bidirectional permeability study was conducted to evaluate the apparent permeability (Papp) of therapeutic compounds. Additionally, the MDCKII-MDR1 cell line (Madin-Darby Canine Kidney clone II cell line heterologously expressing the human P-glycoprotein transporter) and mock cell line MDCKII were used to determine whether a compound acted as a P-gp substrate, in the absence and in the presence of a potent P-gp inhibitor. Test control items (digoxin, metoprolol, and atenolol) and control P-gp inhibitor (GF120918) stock solution were prepared in DMSO. Bidirectional assays (Apical to Basolateral [AB] and Basolateral to Apical [BA]) were run, in both the absence and presence of P-gp inhibitor GF120918 in MDCKII-MDR1 and mock cell line MDCKII, using as transport buffer HBSSH at a pH of 7.4 (n=3).\nCompounds were tested at a single concentration (i.e. at […]) at one time point (i.e. 60 min). Alternative concentrations or time points may also be investigated. As reference compounds, digoxin (P-gp substrate), atenolol (low permeability) and metoprolol (high permeability) were included at a single concentration (e.g., 10 or […]) and at single time point (e.g., 60 min). Digoxin transport was evaluated in two directions (apical-to-basolateral [AB] and basolateral-to-apical [BA]) in the absence and presence of GF120918 or in mock cells, MDCKII (n=3). Atenolol and metoprolol were only tested in the AB direction in absence of P-gp inhibitor GF120918 or in mock cells, MDCKII (n=3). The integrity of the cell monolayer was evaluated after the permeability experiment using the paracellular permeability marker Lucifer yellow (LY) in the apical to basolateral direction in each well.\nMDCKII or MDCKII-MDR1 cells were cultivated in DMEM (high glucose, GlutaMAXTM supplemented with pyruvate, 10% FBS HI and Pen/Strep). Cells were seeded onto microporous PET (Polyethylene Terephthalate) membranes in HTS 96-Multiwell Insert plates at a density of ˜175,000-245,000 cells/cm^2 (25000-35000 cells/well; 50 μL/well) in DMEM medium and incubated for 3-4 days at 37° C.-5% CO2. Medium was changed the day before the experiment.\nStock solutions of test items were prepared in DMSO at a concentration of 5 or 10 mM and stored at −20° C. until use. The potent P-gp inhibitor, GF120918 (stock solution 10 mM) and the reference controls digoxin, atenolol, metoprolol (stock solutions 3 or 10 mM) were prepared in DMSO and stored at −20° C. until use.\nDonor working solutions of test items and reference controls were prepared at a concentration of 10 or 25 µM, diluting the stock solutions in HBSSH. Receiver working solutions contained transport buffer only. All working solutions were prepared such that the final concentration of DMSO was 1% (v/v). A donor working solution containing LY was also prepared in transport buffer at 100 µM.\nMDCKII and MDCKII-MDR1 cells were preincubated (37° C., 15 to 30 minutes) in receiver working solutions containing transport buffer on apical (A) and basolateral (B) sides. Following pre-incubation, test items and control items (digoxin) transport were measured in two directions (apical to basolateral [AB]) and basolateral to apical [BA]), and these directions were performed in triplicate sets of wells, in both the absence and presence of […] GF120918 or mock MDCKII cells. For [AB] directional transport, 75 μL of donor working solution was added to the A (apical) compartment and 235 μL of receiver working solution was added to the B (basolateral) compartment. For [BA] directional transport, 235 μL donor working solution with test items or reference controls was added to the B compartment and 75 μL receiver working solution was added to the A compartment. Transport of permeability reference controls, atenolol and metoprolol, were measured in one direction (apical to basolateral [AB]) (n=3).\nThe cells were incubated (at 37° C., with shaking) for 60 minutes. […]"}}, "note": "Entries after “also recorded” stand apart in the source; their conditions may differ."}
{"molecule": "CNC(C)Cc1ccc2c(c1)OCO2", "note": "(stereo not shown) [MDMA]", "values": [{"measurement": "change in rat body temperature (rectal) relative to vehicle", "setting": "[1]", "result": 1.6, "unit": "°C"}, {"measurement": "DAT/SERT ratio", "setting": "[2]", "result": 0.8}, {"measurement": "increase in blood pressure (diastolic)", "setting": "[3]", "result": "14.4-25 mmg"}, {"measurement": "increase in heart rate", "setting": "[3]", "result": "26-30 bpm"}]}
{"molecule": "COC(=O)c1ccc2c(c1)CC(N)C2", "note": "(stereo not shown) [CMP-405, 2-aminoindane-5-methylcarboxylate]", "values": [{"measurement": "efflux ratio at 60 min", "setting": "[4]", "result": 1.1}, {"measurement": "change in rat body temperature (rectal) relative to vehicle", "setting": "[1]", "result": "lower than the change observed following administration of MDMA; also recorded: significantly lower than the change in temperature caused by MDMA"}]}
{"molecule": "COc1ccc2c(c1)CC(N)C2", "note": "(stereo not shown) [MEAI, 5-methoxy-2-aminoindane]", "values": [{"measurement": "efflux ratio at 60 min", "setting": "[4]", "result": 1}]}
